Results taken from patent US9511120B2, “Use of the angiotensin-(1-9) peptide or derivatives thereof, use of vectors overexpressing the ACE2 enzyme that produces angiotensin-(1-9) for preparing medicaments useful for preventing, reverting, inhibiting and/or reducing hypertension and/or inducing vasodilation” (PONTIFICA UNIVERSIDAD CATÓLICA DE CHILE, priority 2012, dated 2016).

Tests used:
[1] = test system: hypertensive rats by administration of angiotensin II; experiment: Hypertension induced by angiotensin II infusion: body mass, cardiac mass, systolic blood pressure; assay type: in vivo, rat
Protocol: (§1) Rats were subjected to the model of angiotensin II infusion (Grobe et al.: Am. J. Physiol. 292: H736-42, 2007). The animals were separated randomly into the following experimental groups: controls (Sham or pseudo-operated), infused with angiotensin II (300 ng/kg min), infused with angiotensin II and angiotensin-(1-9) (300 ng/kg min and 602 ng/kg min, respectively), and then infused with angiotensin II, angiotensin-(1-9) and the angiotensin-(1-7) receptor antagonist, A779 (300 ng/kg min, 602 ng/kg min, and 100 ng/kg min, respectively). In all cases the pumps operated at a flow of 0.5 μL/h and were implanted in the right jugular vein through a catheter fitted in an intrascapular subcutaneous pocket under anesthesia with ketamine HCl/xylazine (35 and 7 mg/kg i.p., respectively), for a period of 14 days.
Systolic blood pressure (SBP) was measured by the tail plethysmographic method in the animals. To such end, rats were lightly anesthetized with ethyl ether. The measurement was performed once a week by researchers blind to the treatment (Ocaranza et al. J. Hypertens. 20:413-20, 2002).
The degree of cardiac hypertrophy (CH) was measured by the ratio of the cardiac mass (CM), the body mass (BM) and relative cardiac mass (RCM; [CM/BM]*100) (Ocaranza et al., J. Hypertens. 28:1054-1064, 2010).
Four experimental groups of rats were established as described in Example 1. Group 1 corresponds to rats which were infused with saline (Sham). Group 2 corresponds to rats which were infused with only angiotensin II. Group 3 correspond to rats which were co-infused with angiotensin II and angiotensin-(1-9). And Group 4 corresponds to rats which were co-infused with angiotensin II, angiotensin-(1-9) and A779.

[2] = test system: thoracic aortas of hypertensive rats by angiotensin II infusion; experiment: Angiotensin II infusion model: aortic hypertrophy by morphometry; assay type: in vivo, rat; details: thoracic aorta, 14 days infusion
Protocol: as §1
Aortic hypertrophy was determined by morphometry. Sections of the descending aorta of 5 μm thick, which were previously fixed in Bouin (1.3% picric acid, 9.5% formaldehyde and 4.8% acetic acid) for 24 hours, embedded in paraffin and stained with hematoxylin-eosin, were used, to be examined later in a light microscope as described by Igase et al. (Am. J. Physiol. 289:H1013-9, 2005). Briefly, images of the aortas were captured by a video camera (Nikon) fixed to a microscope (Nikon), and projected on a monitor; using the software Nis-Element. Lumen areas (LA) and total areas (TA) were calculated and recorded. The tunica media area (TMA) was obtained from the difference between the TA and LA of the aorta. The tunica media thickness (TMT) was defined as the region delimited by the external elastic lamina (EEL) and internal elastic lamina (IEL).

[3] = test system: cardiomyocyte hypertrophy induced by Ang II in vivo; experiment: Angiotensin II infusion model: cardiomyocyte hypertrophy (area and perimeter); parameters: species or system rat; details: two weeks
Protocol: as §1
The middle portion of the left ventricle (LV) was dehydrated at room temperature for 24 h in Bouin and then embedded in paraffin. Sections of 10-15 μm thick were taken and stained with hematoxylin-eosin, to be examined later in a light microscope in order to observe their general morphological characteristics. Cardiomyocyte size was determined according to Nakamura et al. (Circulation, 98:794-9, 1998). Briefly, images of the cells were captured using a Nikon DS Fi1 camera and projected on a monitor using a software program. The cardiomyocyte area and perimeter were measured and recorded, using the Nis-Element program (Ocaranza et al. J. Hypertens., 28:1054-64, 2010). All measurements were performed by a blinded observer, and at least 80 images of cells per animal, which were randomly selected, were analyzed.

[4] = test system: TGF-β mRNA; experiment: Angiotensin II infusion model: TGF-β mRNA levels in the aortic wall; assay type: in vivo, rat; details: normalized to 18S rRNA
Protocol: as §1
(§2) The procedure described by Ocaranza et al. (Hypertension 48:572-8, 2006) was followed. Briefly, total RNA was isolated from the aorta using the trizol method and quantified by spectroscopy at 260 nm/280 nm. The cDNA was obtained by reverse transcription from 1.5 μg of total RNA treated with DNAse. […] The band intensity was quantified by densitometry and normalized to the 18S ribosomal RNA band.

[5] = test system: MCP-1 mRNA; experiment: Angiotensin II infusion model: MCP-1 mRNA levels in the aortic wall; assay type: in vivo, rat
Protocol: as §1, §2

[6] = test system: collagen I; experiment: Angiotensin II infusion model: collagen I protein levels in the aortic wall by Western blot; assay type: in vivo, rat; details: aortic wall
Protocol: as §1
For the determination of collagen I and TGFβ-1, 30 μg and 50 μg of total proteins were used, respectively, diluted in SDS reducing buffer (50 mM tris-HCl, pH 7.4, NP-40 10%, NaCl 1M, Na deoxycholate 5%, EDTA 10 mg/mL, SDS 10%, aprotinin 1 mg/mL, leupeptin 0.1 mg/mL, PMSF 10 mM), they were then separated by SDS-PAGE gel electrophoresis 7%, and transferred to nitrocellulose membranes of […] to 300 mA for 1 h. The transfer of proteins was monitored by Ponceau red staining. […]

[7] = test system: angiotensin-(1-9); details: administration of the drug; cited from earlier work
[8] = test system: rat mesenteric arteries; experiment: Contractility studies in perfused, pressurized mesenteric arteries; details: co-incubated with angiotensin-(1-9)
Protocol: The change in diameter of rat resistance (mesenteric) arteries was determined, they were then perfused and pressurized under physiological conditions, in response to different substances, according to a methodology previously described (Gonzalez et al. Hypertension 45:853-9, 2005). Briefly, male rats (Sprague Dawley, 150-200 g) were euthanized for dissection of mesenteric vascular territory, avoiding direct manipulation of arterial or venous tissue. Mesenteric small arteries (200-300 micrometers) were isolated, surgically eliminating adventitial tissue under a zoom stereo microscope (Olympus SZ61). The arteries were perfused intraluminally into a thermoregulated bath at controlled pressure and flow, with perfusion solution (modified Krebs, KRB) of the following composition, in mmol/L: NaCl, 130; CaCl2, 2.5; NaHCO3, 25; MgSO4, 1.2; NaH2PO4, 1.2; KCl, 4.7; glucose, 5.5, pH 7.4. Before use, KRB was gassed with a mixture of 95% O2 and 5% CO2. For perfusion, the artery was cannulated with a glass micropipette (outer diameter 164μ), secured with 5-0 silk suture. The arteries were perfused with 10-20 μL/min KRB, so as to achieve transmural pressure of 60 mmHg. After a rest period of 20 minutes, each artery was incubated in the presence of a vasoconstrictor (100 μM phenylephrine) for two minutes and an endothelial NO production agonist (1 μM acetylcholine). […]

Asp-Arg-Val-Tyr-Ile-His-Pro-Phe [angiotensin II, infused to induce hypertension in the model, reference compound]
SBP 1st week ([1]; 1st week of infusion): 130 ± 4 mmHg | SBP 2nd week ([1]; 2nd week of infusion): 154 ± 10 mmHg | Initial SBP ([1]; baseline, tail plethysmography): 121 ± 9 mmHg | CM ([1]; rats, infusion for 14 days): 899 ± 28 mg | RCM (MV/MC) ([1]; rats, infusion for 14 days): 348 ± 18 | ratio of tunica media area (TMA) to LA [2]: increase | thickness of the tunica media (TMT) [2]: increased significantly | vascular lumen area (LA) [2]: no change | cardiomyocyte cell area ([3]; left ventricle): 282±2 μm^2 | cardiomyocyte perimeter ([3]; left ventricle): 66.2±0.3 μm | increase in cell area as compared to the Sham control group [3]: 37% | increase in perimeter as compared to the Sham control group [3]: 18% | increase of TGF-β mRNA in relation to Sham control [4]: 12.8 times | MCP-1 mRNA levels [5]: no differences | increase of collagen I as compared to the Sham control group [6]: 4.5 times

CCOC(=O)[C@H](CCc1ccccc1)N[C@@H](C)C(=O)N1CCC[C@H]1C(=O)O [enalapril]
plasma and/or tissue levels of angiotensin-(1-9) [7]: increase

COC(=O)[C@@H](N)CCCNC(=N)N[N+](=O)[O-] [L-NAME, reference compound]
effect of nitric oxide synthase inhibitor on the vasodilator effect of angiotensin-(1-9) [8]: decreased the vasodilator effect
